Patent US7385026B1, “Modified ghrelin polypeptides” (priority 1999, dated 2008)
“And” between values parts separate entries of the source, which are not always exact repeats. Identical values can stand only once.

Tests used:
[1] = tested on: amino-terminal antibody (anti-[C-Cys]-rat ghrelin [1-11] antigen); assay: Radioimmunoassay: inhibition of binding of labeled rat ghrelin to amino-terminal antibody; design: species or system rabbit
[2] = molecular target: T1, rat GHS-receptor (GHR-R) (Rattus norvegicus, UniProt O08725); assay: Ca-releasing activity (increase in intracellular calcium) in CHO-GHSR62 cells, FLIPR; assay type: cell-based; conditions: for EC50: CHO-GHSR62 cells (CHO cells expressing rat GHS receptor), FLIPR, read-out: Ca-releasing activity EC50
T1 construct: A full-length cDNA for rat GHR-R was obtained by RT-PCR; expressed in transfected cells
T1 sequence (O08725 whole entry): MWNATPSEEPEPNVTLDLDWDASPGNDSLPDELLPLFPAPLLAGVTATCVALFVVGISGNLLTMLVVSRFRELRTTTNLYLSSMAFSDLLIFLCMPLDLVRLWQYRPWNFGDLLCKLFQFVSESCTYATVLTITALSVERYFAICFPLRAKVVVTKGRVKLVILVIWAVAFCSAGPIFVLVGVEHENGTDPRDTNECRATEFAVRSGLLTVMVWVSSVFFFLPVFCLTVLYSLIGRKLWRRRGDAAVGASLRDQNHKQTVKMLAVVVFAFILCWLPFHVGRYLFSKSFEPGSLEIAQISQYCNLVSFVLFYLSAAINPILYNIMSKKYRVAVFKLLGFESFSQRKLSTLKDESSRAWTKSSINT
How it was run: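 CHO cells stably expressing full-length rat GHS-R (CHO-GHSR62) were cultured 12–15 h, loaded with 4 μM Fluo4 for 1 h and washed with Hank's BSS containing 20 mM Hepes and 2.5 mM probenecid. Ca-releasing activity of ghrelin peptides, fragments or derivatives was read by FLIPR as the fluorescence change after sample addition.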

[3] = molecular target: carboxyl-terminal antibody (anti-[C-Cys]-rat ghrelin [13-28] antigen); assay: Radioimmunoassay: inhibition of binding of labeled rat ghrelin to carboxyl-terminal antibody; design: species or system rabbit; conditions: FIG. 9b, amount per reaction tube
Excerpt: Using antibodies raised against amino- and carboxyl-terminal rat ghrelin peptides as antigens, ghrelin in various living tissues was quantified by radioimmunoassay (RIA).
Rabbits were immunized with [C-Cys]-rat ghrelin [1-11] (rat ghrelin peptide of amino acids 1 to 11 from amino-terminal having cysteine bound to the carboxyl-terminal thereof) and [C-Cys]-rat ghrelin [13-28] (rat ghrelinpeptideof aminoacids 13 to 28 from amino-terminal having cysteine bound to the carboxyl-terminal thereof) as antigens, to form amino-terminal antibody (anti-[C-Cys]-rat ghrelin [1-11] antigen) and carboxyl-terminal antibody (anti-[C-Cys]-rat ghrelin [13-28] antigen) respectively.
That is, it was confirmed that the carboxyl-terminal antibodyhas the same affinity for ghrelin modified with fatty acid and for ghrelin from which fatty acid was released.

[4] = tested on: rat pituitary cultured cells; assay: Intracellular calcium change in primary anterior pituitary cells; assay type: cell-based; conditions: FIG. 5a
[5] = tested on: Wistar strain male rats; assay: Change of GH level in plasma over time after i.v. administration; assay type: in vivo, rat; conditions: 5 μg/head i.v.; for GH level in plasma, individual rats (Rat 1-5): listed as [Cys^3(Octyl)]-rat ghrelin
Protocol: Physiological saline as the control and rat ghrelin (5 μg/head) were also administered and compared with Compound 18.

[6] = tested on: IGS-SD strain rats; assay: GH-releasing activity of long-chain ghrelin derivatives in rat (plasma GH 15 min after i.v.); assay type: in vivo
Protocol: Fifteen minutes after administration, plasma was collected, and the concentration of GH in plasma was measured by radioimmunoassay (Biotrak/Amersham). Separately, 0.2% bovine serum albumin (BSA)-physiological saline, 6 nmol/kg rGhrelin and hGhrelin, or 80 nmol/kg Ipamorelin (Compound 80) was administered into other rats as the control, respectively, and the concentrations of GH in plasma in 15 minutes after administration were compared (for each sample, n=3).

[7] = tested on: Wister male rats; assay: Cell growth: 3H-thymidine incorporation into bone marrow, duodenum, jejunum; assay type: in vivo, rat; conditions: 20 μg/kg i.v., 18 hours after administration
Protocol: To examine the action of administered ghrelin on promotion of cell growth, the f ollowing experiment was conducted. Twenty μg/kg of rat ghrelin or thioether-type rat ghrelin (Compound 18 [Cys^3(octyl)]-hghrelin) was administered into tail veins of Wister male rats (7.5-week-old) respectively. Seventeen hours after administration, ^3H-thymidine was administered into tail veins, and 1 hour thereafter, duodenum, jejunum and bone marrow were excised. The incorporation of […] to DNA fractions of these tissues was measured in order to examine the cell growth-promoting action of ghrelin and ghrelin derivatives. The tissues were cut thin and homogenized using a Polytron homogenizer, and after centrifugation, the supernatant was precipitated with trichloroacetic acid to give a DNA fraction. The radioactivity of the DNA fraction was measured by a liquid scintillation counter.
Numerical values show the ratio (%) of incorporation of radioisotope relative to the mean (in triplicate) of the comparative example (i.e. the group given physiological saline).

SMILES: CCCCCC(=O)OC[C@H](NC(=O)[C@H](CO)NC(=O)CN)C(=O)N[C@@H](Cc1ccccc1)C(=O)N[C@@H](CC(C)C)C(=O)N[C@@H](CO)C(=O)N1CCC[C@H]1C(=O)N[C@@H](CCC(=O)O)C(=O)N[C@@H](Cc1c[nH]cn1)C(=O)N[C@@H](CCC(N)=O)C(=O)N[C@@H](CCCCN)C(=O)N[C@@H](C)C(=O)N[C@@H](CCC(N)=O)C(=O)N[C@@H](CCC(N)=O)C(=O)N[C@@H](CCCNC(=N)N)C(=O)N[C@@H](CCCCN)C(=O)N[C@@H](CCC(=O)O)C(=O)N[C@@H](CO)C(=O)N[C@@H](CCCCN)C(=O)N[C@@H](CCCCN)C(=O)N1CCC[C@H]1C(=O)N1CCC[C@H]1C(=O)N[C@@H](C)C(=O)N[C@@H](CCCCN)C(=O)N[C@@H](CC(C)C)C(=O)N[C@@H](CCC(N)=O)C(=O)N1CCC[C@H]1C(=O)N[C@@H](CCCNC(=N)N)C(=O)O [Compound 11, [Ser^3(Hexanoyl)]-rGhrelin]
- cross-reactivity with the amino-terminal antibody [1]: 0.3%
- EC50 [2]: 16 nM

SMILES: CC(C)C[C@H](NC(=O)[C@H](CCCCN)NC(=O)[C@H](C)NC(=O)[C@@H]1CCCN1C(=O)[C@@H]1CCCN1C(=O)[C@H](CCCCN)NC(=O)[C@H](CCCCN)NC(=O)[C@H](CO)NC(=O)[C@H](CCC(=O)O)NC(=O)[C@H](CCCCN)NC(=O)[C@H](CCCNC(=N)N)NC(=O)[C@H](CCC(N)=O)NC(=O)[C@H](CCC(N)=O)NC(=O)[C@H](C)NC(=O)[C@H](CCCCN)NC(=O)[C@H](CCC(N)=O)NC(=O)[C@H](Cc1c[nH]cn1)NC(=O)[C@H](CCC(=O)O)NC(=O)[C@@H]1CCCN1C(=O)[C@H](CO)NC(=O)[C@H](CC(C)C)NC(=O)[C@H](Cc1ccccc1)NC(=O)[C@H](CO)NC(=O)[C@H](CO)NC(=O)CN)C(=O)N[C@@H](CCC(N)=O)C(=O)N1CCC[C@H]1C(=O)N[C@@H](CCCNC(=N)N)C(=O)O [Compound 7, [Ser^3]-rat Ghrelin]
- IC50 in binding between radioisotope-labeled rat ghrelin and the carboxyl-terminal antibody [3]: 44 fmol
- reaction / affinity with the amino-terminal antibody (in words) [1]: did not react
- change in intracellular calcium ion concentration [4]: slightly increased Ca-releasing activity
- Ca-releasing activity (in words) ([2]; CHO-GHSR62 cells): did not show a significant Ca-releasing activity

SMILES: CCCCCCCCSC[C@H](NC(=O)[C@H](CO)NC(=O)CN)C(=O)N[C@@H](Cc1ccccc1)C(=O)N[C@@H](CC(C)C)C(=O)N[C@@H](CO)C(=O)N1CCC[C@H]1C(=O)N[C@@H](CCC(=O)O)C(=O)N[C@@H](Cc1c[nH]cn1)C(=O)N[C@@H](CCC(N)=O)C(=O)N[C@@H](CCCCN)C(=O)N[C@@H](C)C(=O)N[C@@H](CCC(N)=O)C(=O)N[C@@H](CCC(N)=O)C(=O)N[C@@H](CCCNC(=N)N)C(=O)N[C@@H](CCCCN)C(=O)N[C@@H](CCC(=O)O)C(=O)N[C@@H](CO)C(=O)N[C@@H](CCCCN)C(=O)N[C@@H](CCCCN)C(=O)N1CCC[C@H]1C(=O)N1CCC[C@H]1C(=O)N[C@@H](C)C(=O)N[C@@H](CCCCN)C(=O)N[C@@H](CC(C)C)C(=O)N[C@@H](CCC(N)=O)C(=O)N1CCC[C@H]1C(=O)N[C@@H](CCCNC(=N)N)C(=O)O [Compound 18, [Cys^3(Octyl)]-rGhrelin]
- GH level in plasma, Mean ± S.D. ([5]; time 0 min): 120 ± 146 ng/mL
- GH level in plasma, individual rats (Rat 1-5) ([5]; time 0 min): 33 ng/mL and 32 ng/mL and 377 ng/mL and 101 ng/mL and 59 ng/mL
- GH level in plasma, Mean ± S.D. ([5]; time 5 min): 450 ± 133 ng/mL
- GH level in plasma, individual rats (Rat 1-5) ([5]; time 5 min): 530 ng/mL and 613 ng/mL and 338 ng/mL and 294 ng/mL and 476 ng/mL
- GH level in plasma, Mean ± S.D. ([5]; time 10 min): 783 ± 324 ng/mL
- GH level in plasma, individual rats (Rat 1-5) ([5]; time 10 min): 959 ng/mL and 1060 ng/mL and 687 ng/mL and 258 ng/mL and 949 ng/mL
- GH level in plasma, Mean ± S.D. ([5]; time 15 min): 1093 ± 506 ng/mL
- GH level in plasma, individual rats (Rat 1-5) ([5]; time 15 min): 1451 ng/mL and 1561 ng/mL and 927 ng/mL and 300 ng/mL and 1229 ng/mL
- GH level in plasma, Mean ± S.D. ([5]; time 20 min): 1067 ± 445 ng/mL
- GH level in plasma, individual rats (Rat 1-5) ([5]; time 20 min): 1299 ng/mL and 1359 ng/mL and 900 ng/mL and 358 ng/mL and 1417 ng/mL
- GH level in plasma, Mean ± S.D. ([5]; time 30 min): 589 ± 229 ng/mL
- GH level in plasma, individual rats (Rat 1-5) ([5]; time 30 min): 800 ng/mL and 726 ng/mL and 469 ng/mL and 245 ng/mL and 704 ng/mL
- GH level in plasma, Mean ± S.D. ([5]; time 60 min): 132 ± 53 ng/mL
- GH level in plasma, individual rats (Rat 1-5) ([5]; time 60 min): 220 ng/mL and 122 ng/mL and 98 ng/mL and 86 ng/mL and 133 ng/mL
- GH level in plasma in 15 min. after administration, M ± S.D. ([6]; dose 30 nmol/kg i.v., n=3): 2494 ± 253 ng/mL
- GH level in plasma in 15 min. after administration, individual rats (Rat 1-3) ([6]; dose 30 nmol/kg i.v., rats under Nembutal): 2786 ng/mL and 2342 ng/mL and 2354 ng/mL
- GH-releasing activity (in words) ([6]; i.v., plasma GH at 15 minutes): strong GH-releasing activity
- incorporation of 3H-thymidine relative to the mean of the physiological saline group, Bone marrow (in tissues) [7]: 144.5%
- incorporation of 3H-thymidine relative to the mean of the physiological saline group, Duodenum (in DNA fraction) [7]: 114.0%
- incorporation of 3H-thymidine relative to the mean of the physiological saline group, Jejunum (in DNA fraction) [7]: 151.0%
- EC50 [2]: 5.4 nM
